Experimental findings from ChEMBL document CHEMBL4699437, “New insights into ethionamide metabolism: influence of oxidized methionine on its degradation path” (RSC Med Chem, 2020) are described below.

Each structure is given as a SMILES string.

The nature of this data set: Acid dissociation constant, pKa of the compound.

In general, pKa refers to the pH at which an ionisable group is half protonated. Low readings indicate a group that gives up its proton readily, high ones a group that holds its proton tightly.

For the compound `CCc1cc(C(N)=S)ccn1` [ETHIONAMIDE], the pKa worked out at 11.9.
